Laboratory results: US7711497B2, “Method of identifying calcium-binding sites in gamma-crystallin useful for management of cataract” (Council of Scientific and Industrial Research, priority 2002, dated 2010)
Where no end group is shown, it is not given here.

Legend:
[1] = Solubility of Greek key peptides; type: physicochemical; conditions: aqueous medium / water
[2] = Stains-all binding assay (induced CD); conditions: peptides; dye 43 μM
Description: Stains-all Binding Assay-Aliquots of protein solutions were added to the Stains-all solution and mixed gently. Circular dichroism induced in the achiral dye upon binding to the protein was measured in the visible region of the spectrum (400-700 nm). The dye solution and the crystallins were prepared in 2 mM MOPS buffer, pH 7.2, containing 30% ethylene glycol (34, 35). Ellipticities were expressed in millidegrees.
CD spectra of Stains-all induced upon binding to crystallin were recorded in 2 mM MOPS buffer, pH 7.2, containing 30% ethylene glycol, path length 1 cm. Dye concentration in all experiments was 16 μM. The ellipticity data are represented in millidegrees. A, CD spectra recorded with increasing concentration of -crystallin; 1, 0.026 mg/ml (---); 2, 0.078 mg/ml (- - -); 3, 0.13 mg/ml -.-.-. and 4, 0.156 mg/ml (. . .). B, effect of calcium on Stains-all--crystallin complex spectra. Calcium was added in the dye-protein mixture (-crystallin concentration was […]), and CD was recorded. Calcium concentrations used are as follows: 1, no calcium (---); 2, 50 μM calcium (- - - -); 3, 100 μM calcium (. . .); 4, 200 μM calcium (-.-.-.); and 5, 300 μM calcium (-..-..). The J band was abolished with 300-μM calcium.
CD spectra of Stains-all induced upon binding to peptides were recorded. Dye concentration in all experiments was 43 μM. The ellipticity data are represented in millidegrees. a, CD spectra were recorded with increasing concentration of the wild type peptide g3; 0.013 mg/ml (---), 0.037 mg/ml (- - -), and 0.057 mg/ml (. . . .). b, effect of calcium on Stains-all-peptide complex. Calcium was added to the dye-peptide mixture (peptide concentration was 57 μg/ml) and calcium concentrations used were: no calcium (---), 0.7 mM calcium (- - - -), and 7.5 mM calcium (. . . .). c and d represent the Stains-all binding of the modified peptides, g3a and g3b. Identical concentrations of dye and peptides were used.

[3] = 45Ca overlay method (peptide dot-blot); type: binding; conditions: dot-blot on polyvinylidene difluoride membrane
Description: Calcium Binding Studies by ^45Ca Overlay Method-Calcium binding to peptides was done by ^45Ca overlay method of Maruyama et al, 133). […] of peptides were spotted onto a polyvinylidene difluoride membrane by dot-blot apparatus. The membrane was equilibrated in a solution containing 10-mM imidazole HCl. pH 6.8, 60 mM KCl, 5 mM MgCl2 and then incubated for 15 min at 25° C. in the same buffer containing 1 microCi/mil ^45Ca. The membrane was then rinsed twice in 45% ethanol, blotted dry, and exposed to PhosphorImager screen, and the signal was read in Phosphorimager (Fuji Bas-1800).
The wild type peptide g3, its variants (g3a and g3b) and s3a were spotted onto a polyvinylidene difluoride membrane and detected by ^45Ca overlay. For a positive control, EF-hand peptide corresponding to site 4 of rat neuronal calcium sensor-1 was used; bovine serum albumin (BSA) was used as a negative control.

[4] = Calcium binding of single crystallin domain of AIMI; conditions: compared with gamma-crystallin

RMRIYERDDFRGQMSEITDDCPSLQDRFHLTEVHSLNVLEGS [g3]
solubility [1]: fairly soluble in aqueous medium

g3a: g3 mutant with Glu-95 and Glu-121 modified to Lys, Seq. ID No. 2 (RMRIYKRDDFRGQMSEITDDCPSLQDRFHLTKVHSLNVLEGS)
Stains-all binding, induced CD band [2]: decreased several fold | 45Ca binding [3]: do not show detectable binding

g3b: g3 mutant with aspartates 108 and 109 replaced by Lys, Seq. ID No. 3 (RMRIYERDDFRGQMSEITKKCPSLQDRFHLTEVHSLNVLEGS)
Stains-all binding, induced CD band [2]: binds the dye and induces the band | 45Ca binding [3]: do not show detectable binding

s3a: control peptide, first Greek key motif of spherulin 3a (residues 14-56), Seq. ID No. 4 (GEVFLYKHVNFQGDSWKVTGNVYDFRSVSGLNDVVSSVKVGPN)
Stains-all binding, induced CD band [2]: binds the dye and induces a calcium-sensitive band at 470-475 nm | solubility [1]: not soluble in water

B1: AIMI: single crystallin domain of AIMI (absent in melanoma), 1022-1117 residues, comprising two Greek keys (protein, UniProt Q9Y4K1 1022-1117, looked up, fragment)
chain: AAKSGPQVIPPASEKTLPIQAQSQGSRTPLMAESSPTNSPSSGNHLATPQRPDQTVTNGQDSPASLLNISAGSDDSVFDSSSDMEKFTEIIKQMDS
modifications: crystallin domain
notes: single crystallin domain of AIMI (absent in melanoma), 1022-1117 residues, comprising two Greek keys
calcium binding affinity [4]: binds calcium with a comparative affinity to gamma-crystallin
